Reference: patent US20070049564A1 (Wyeth, priority 2005, published 2007)
Values after ≈ are worked out from the molar mass of the structure shown. Where two headings read alike, the source gives them in different places.

Experiments:
[1] = system: E. coli GC 2231; experiment: MIC, broth microdilution; settings: Escherichia coli, GC2231, E. coli GC 2231
[2] = system: E. coli GC 2232; experiment: MIC, broth microdilution; settings: Escherichia coli, GC2232, E. coli GC 2232
[3] = system: E. coli GC 2272; experiment: MIC, broth microdilution; settings: Escherichia coli, GC2272, E. coli GC 2272
[4] = system: E. coli GC 4560; experiment: MIC, broth microdilution; settings: Escherichia coli, GC4560, E. coli GC 4560
[5] = system: E. coli GC 6465; experiment: MIC, broth microdilution; settings: Escherichia coli, GC6465, E. coli GC 6465
[6] = system: E. coli GC 3226; experiment: MIC, broth microdilution; settings: Escherichia coli, GC3226, E. coli GC 3226
[7] = system: E. coli GC 2203; experiment: MIC, broth microdilution; settings: Escherichia coli, GC2203, E. coli GC 2203
[8] = system: S. typhimurium GC 2172; experiment: MIC, broth microdilution; settings: Salmonella enterica, TYPHIMURIUM, S. typhimurium GC 2172
[9] = system: S. aureus GC 6466; experiment: MIC, broth microdilution; settings: Staphylococcus aureus, GC6466, S. aureus GC 6466
[10] = system: S. aureus GC 6467; experiment: MIC, broth microdilution; settings: Staphylococcus aureus, GC6467, S. aureus GC 6467
[11] = system: S. aureus GC 4536; experiment: MIC, broth microdilution; settings: Staphylococcus aureus, GC4536, S. aureus GC 4536
[12] = system: S. aureus GC 6469; experiment: MIC, broth microdilution; settings: Staphylococcus aureus, GC6469, S. aureus GC 6469
Description: (§1) Antimicrobial susceptibility testing. The in vitro activities of the antibiotics are determined by the broth microdilution method as recommended by the National Committee for Clinical Laboratory Standards (NCCLS) (1). Mueller-Hinton II broth (MHBII)(BBL Cockeysville, Md.) is the medium employed in the testing procedures. Microtiter plates containing serial dilutions of each antimicrobial agent are inoculated with each organism to yield the appropriate density (10^5 CFU/ml) in a 100 μl final volume. The plates are incubated for 18-22 hours at 35° C. in ambient air.
Representative compounds were first incubated in mouse serum for an hour prior to the in vitro testing against a panel of selected gram-positive and gram-negative bacteria strains. All compounds were also pre-incubated in water for an hour prior to testing as control.

[13] = system: E. faecalis GC 4555; experiment: MIC, broth microdilution; settings: Enterococcus faecalis, GC4555, E. faecalis GC 4555
[14] = system: E. faecalis GC 2265; experiment: MIC, broth microdilution; settings: Enterococcus faecalis, GC2265, E. faecalis GC 2265
[15] = system: E. faecalis GC 2267; experiment: MIC, broth microdilution; settings: Enterococcus faecalis, GC2267, E. faecalis GC 2267
[16] = system: E. faecium GC 2243; experiment: MIC, broth microdilution; settings: Enterococcus faecium, GC2243, E. faecium GC 2243
[17] = system: S. pneumoniae* GC 4465; experiment: MIC, broth microdilution; settings: Streptococcus pneumoniae, S. pneumoniae* GC 4465
[18] = system: S. agalactiae GC 4564; experiment: MIC, broth microdilution
[19] = system: E. coli; experiment: Range of MIC for E. coli strains; settings: Escherichia coli
[20] = system: Staph.; experiment: Range of MIC for Staph. strains, including MRSA; settings: Staphylococcus aureus, MRSA
Description: as §1
Representative compounds were first incubated in mouse serum for an hour prior to the in vitro testing against a panel of selected gram-positive and gram-negative bacteria strains. All compounds were also pre-incubated in water for an hour prior to testing as control. Representative compounds of Formula I were incubated in human serum prior to MIC determination.

`CCCCN(CC(=O)Nc1cc(N(C)C)c2c(c1O)C(=O)C1=C(O)[C@]3(O)C(=O)C(C(N)=O)=C(O)[C@@H](N(C)C)[C@@H]3C[C@@H]1C2)C(=O)OCOC(=O)Cc1ccccc1` [Example 12, ({[(2-{[(5aR,6aS,7S,10aS)-9-(aminocarbonyl)-4,7-bis(dimethylamino)-1,8,10a,11-tetrahydroxy-10,12-dioxo-5,5a,6,6a,7,10,10a,12-octahydrotetracen-2-yl]amino}-2-oxoethyl)(butyl)amino]carbonyl}oxy)methyl phenylacetate] gave an MIC ([1]; Mouse Serum pre-incubation) of 2 µg/mL (≈ 2.57 µM), an MIC ([1]; Water pre-incubation) of 64 µg/mL (≈ 82.3 µM) and an MIC ([2]; Mouse Serum pre-incubation) of 0.5 µg/mL (≈ 0.643 µM). The MIC ([2]; Water pre-incubation) was 32 µg/mL (≈ 41.1 µM), the MIC ([3]; Mouse Serum pre-incubation) was 1 µg/mL (≈ 1.29 µM) and the MIC ([3]; Water pre-incubation) was 16 µg/mL (≈ 20.6 µM). For the same compound, the MIC ([4]; Mouse Serum pre-incubation) was 0.25 µg/mL (≈ 0.321 µM), the MIC ([4]; Water pre-incubation) was 1 µg/mL (≈ 1.29 µM) and the MIC ([5]; Mouse Serum pre-incubation) was 8 µg/mL (≈ 10.3 µM). The MIC ([5]; Water pre-incubation) was greater than 64 µg/mL, the MIC ([6]; Mouse Serum pre-incubation) was 2 µg/mL (≈ 2.57 µM) and the MIC ([6]; Water pre-incubation) was 64 µg/mL (≈ 82.3 µM). For the same compound, the MIC ([7]; Mouse Serum pre-incubation) was 1 µg/mL (≈ 1.29 µM), the MIC ([7]; Water pre-incubation) was 32 µg/mL (≈ 41.1 µM) and the MIC ([8]; Mouse Serum pre-incubation) was 4 µg/mL (≈ 5.14 µM). For the same compound, the MIC ([8]; Water pre-incubation) was greater than 64 µg/mL, the MIC ([9]; Mouse Serum pre-incubation) was 0.5 µg/mL (≈ 0.643 µM) and the MIC ([9]; Water pre-incubation) was 1 µg/mL (≈ 1.29 µM). The MIC ([10]; Mouse Serum pre-incubation) was 4 µg/mL (≈ 5.14 µM), the MIC ([10]; Water pre-incubation) was 16 µg/mL (≈ 20.6 µM) and the MIC ([11]; Mouse Serum pre-incubation) was 1 µg/mL (≈ 1.29 µM). The MIC ([11]; Water pre-incubation) was 2 µg/mL (≈ 2.57 µM), the MIC ([12]; Mouse Serum pre-incubation) was 4 µg/mL (≈ 5.14 µM) and the MIC ([12]; Water pre-incubation) was 16 µg/mL (≈ 20.6 µM). The MIC ([13]; Mouse Serum pre-incubation) was 0.5 µg/mL (≈ 0.643 µM), the MIC ([13]; Water pre-incubation) was 4 µg/mL (≈ 5.14 µM) and the MIC ([14]; Mouse Serum pre-incubation) was 2 µg/mL (≈ 2.57 µM). For the same compound, the MIC ([14]; Water pre-incubation) was 8 µg/mL (≈ 10.3 µM), the MIC ([15]; Mouse Serum pre-incubation) was 2 µg/mL (≈ 2.57 µM) and the MIC ([15]; Water pre-incubation) was 8 µg/mL (≈ 10.3 µM). The MIC ([16]; Mouse Serum pre-incubation) was 0.5 µg/mL (≈ 0.643 µM), the MIC ([16]; Water pre-incubation) was 4 µg/mL (≈ 5.14 µM) and the MIC ([17]; Mouse Serum pre-incubation) was less than 0.06 µg/mL. The MIC ([17]; Water pre-incubation) was 0.12 µg/mL (≈ 0.154 µM), the MIC ([18]; S. agalactiae GC 4564, Water pre-incubation) was 0.25 UG/ML and the MIC ([18]; Streptococcus agalactiae, GC4564) was 0.25 µg/mL (≈ 0.321 µM). For the same compound, the MIC ([19]; 20 h, read-out: Range of MIC, E. coli (Mouse Serum)) was 0.5 to 2 µg/mL (≈ 0.643 to 2.57 µM), the MIC ([19]; read-out: Minimum inhibitory concentration (MIC), E. coli (mouse serum)) was 0.5 to 2 µg/mL (≈ 0.643 to 2.57 µM) and the MIC ([19]; read-out: Minimum inhibitory concentration (MIC), E. coli (water)) was 16 to 64 µg/mL (≈ 20.6 to 82.3 µM). It also gave an MIC ([19]; read-out: Range of MIC, E. coli (Water)) of 16 to 64 µg/mL (≈ 20.6 to 82.3 µM), an MIC ([20]; read-out: Minimum inhibitory concentration (MIC), Staph. (mouse serum)) of 0.5 to 4 µg/mL (≈ 0.643 to 5.14 µM) and an MIC ([20]; read-out: Minimum inhibitory concentration (MIC), Staph. (water)) of 1 to 16 µg/mL (≈ 1.29 to 20.6 µM). It also gave an MIC ([20]; read-out: Range of MIC, Staph (Mouse Serum)) of 0.5 to 4 µg/mL (≈ 0.643 to 5.14 µM) and an MIC ([20]; read-out: Range of MIC, Staph (Water)) of 1 to 16 µg/mL (≈ 1.29 to 20.6 µM).
